Results published in PubChem BioAssay (NCI).
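A five-concentration, 48-hour dose response in 96-well plates underlies each endpoint, interpolated linearly between surrounding concentrations. At the TGI there is no net growth.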

Assays:
Experiment in all cases: NCI tumour cell line growth inhibition, 48 h
[1] = system: SN12C renal
[2] = system: COLO 205 colon
[3] = system: SK-OV-3 ovarian
[4] = system: A549 NSCLC
[5] = system: NCI-H522 lung
[6] = system: SN12K1 renal
[7] = system: IGROV1 ovarian
[8] = system: K-562 leukemia
[9] = system: P388/ADR leukemia
[10] = system: P388 leukemia
[11] = system: SNB-19 CNS
[12] = system: OVCAR-4 ovarian
[13] = system: SNB-75 CNS
[14] = system: SF-539 CNS
[15] = system: OVCAR-3 ovarian
[16] = system: SK-MEL-5 melanoma
[17] = system: OVCAR-8 ovarian
[18] = system: HOP-62 NSCLC
[19] = system: SNB-78 CNS
[20] = system: NCI/ADR-RES ovarian
[21] = system: XF 498 CNS
[22] = system: CAKI-1 renal
[23] = system: NCI-H226 lung
[24] = system: RXF 393 renal
[25] = system: SF-268 CNS
[26] = system: MCF7 breast
[27] = system: KM12 colon
[28] = system: UO-31 renal
[29] = system: RPMI-8226 leukemia
[30] = system: DMS 114 small cell lung
[31] = system: SW-620 colon
[32] = system: UACC-257 melanoma
[33] = system: A498 renal
[34] = system: SK-MEL-28 melanoma
[35] = system: M19-MEL melanoma
[36] = system: SK-MEL-2 melanoma
[37] = system: HOP-18 NSCLC
[38] = system: HT29 colon
[39] = system: OVCAR-5 ovarian
[40] = system: HCT-116 colon
[41] = system: MALME-3M melanoma
[42] = system: NCI-H23 lung
[43] = system: EKVX NSCLC
[44] = system: HCC-2998 colon
[45] = system: DLD-1 colon
[46] = system: HCT-15 colon
[47] = system: HL-60(TB) leukemia
[48] = system: UACC-62 melanoma
[49] = system: SF-295 CNS
[50] = system: CCRF-CEM leukemia
[51] = system: LOX IMVI melanoma
[52] = system: MOLT-4 leukemia
[53] = system: HOP-92 NSCLC
[54] = system: DMS 273 small cell lung
[55] = system: NCI-H460 lung
[56] = system: KM20L2 colon
[57] = system: SR leukemia
[58] = system: U251 CNS
[59] = system: LXFL 529 NSCLC
[60] = system: RXF-631 renal
[61] = system: ACHN renal
[62] = system: 786-0 renal
[63] = system: M14 melanoma
[64] = system: TK-10 renal

Question: For `COc1cc(C2c3cc4c(cc3[C@@H](Nc3ccccc3)C3COC(=O)[C@H]23)OCO4)cc(OC)c1O` (stereo not given in full), which TGI [1] is on record?
Answer: 6.03 µM

Question: And the TGI [2]?
Answer: 5.66 µM

Question: And the TGI [3]?
Answer: 4.87 µM

Question: And the TGI [4]?
Answer: 1820 nM

Question: What about the TGI [5] of the same molecule?
Answer: 3.7 µM

Question: What about the TGI [6] of the same molecule?
Answer: 8.65 µM

Question: And the TGI [7]?
Answer: 17.5 µM

Question: And the TGI [8]?
Answer: 9.32 µM

Question: What about the TGI [9] of the same molecule?
Answer: 4.59 µM

Question: And the TGI [10]?
Answer: 2350 nM

Question: What about the TGI [11] of the same molecule?
Answer: 11.3 µM

Question: What about the TGI [12] of the same molecule?
Answer: 34.6 µM

Question: And the TGI [13]?
Answer: 7.97 µM

Question: What about the TGI [14] of the same molecule?
Answer: 1.8 µM

Question: What about the TGI [15] of the same molecule?
Answer: 7.34 µM

Question: What about the TGI [16] of the same molecule?
Answer: 2660 nM

Question: What about the TGI [17] of the same molecule?
Answer: > 19.7 µM

Question: What about the TGI [18] of the same molecule?
Answer: 671 nM

Question: And the TGI [19]?
Answer: > 91 µM

Question: What about the TGI [20] of the same molecule?
Answer: 45.2 µM

Question: And the TGI [21]?
Answer: 7.84 µM

Question: What about the TGI [22] of the same molecule?
Answer: 1.68 µM

Question: What about the TGI [23] of the same molecule?
Answer: 2.12 µM

Question: And the TGI [24]?
Answer: 6.8 µM

Question: What about the TGI [25] of the same molecule?
Answer: 13.2 µM

Question: And the TGI [26]?
Answer: > 41.2 µM

Question: And the TGI [27]?
Answer: 4.69 µM

Question: And the TGI [28]?
Answer: 5.07 µM

Question: And the TGI [29]?
Answer: 2.23 µM

Question: And the TGI [30]?
Answer: 3.42 µM

Question: What about the TGI [31] of the same molecule?
Answer: > 42.9 µM

Question: And the TGI [32]?
Answer: 4.27 µM

Question: What about the TGI [33] of the same molecule?
Answer: 1.65 µM

Question: What about the TGI [34] of the same molecule?
Answer: 23.1 µM

Question: What about the TGI [35] of the same molecule?
Answer: 16.6 µM

Question: And the TGI [36]?
Answer: 6.97 µM

Question: And the TGI [37]?
Answer: 22.6 µM

Question: And the TGI [38]?
Answer: 3.64 µM

Question: What about the TGI [39] of the same molecule?
Answer: > 66.8 µM

Question: What about the TGI [40] of the same molecule?
Answer: 6.27 µM

Question: And the TGI [41]?
Answer: 8.65 µM

Question: What about the TGI [42] of the same molecule?
Answer: 3.01 µM

Question: What about the TGI [43] of the same molecule?
Answer: 8.47 µM

Question: What about the TGI [44] of the same molecule?
Answer: 3.35 µM

Question: And the TGI [45]?
Answer: 6.64 µM

Question: And the TGI [46]?
Answer: 2430 nM

Question: And the TGI [47]?
Answer: 1.09 µM

Question: And the TGI [48]?
Answer: 2.9 µM

Question: And the TGI [49]?
Answer: 3.79 µM

Question: What about the TGI [50] of the same molecule?
Answer: 476 nM

Question: And the TGI [51]?
Answer: 3.38 µM

Question: And the TGI [52]?
Answer: 0.13 µM

Question: And the TGI [53]?
Answer: 11.7 µM

Question: What about the TGI [54] of the same molecule?
Answer: 3.35 µM

Question: And the TGI [55]?
Answer: 2860 nM

Question: What about the TGI [56] of the same molecule?
Answer: > 23.3 µM

Question: `Oc1oc(C(=C2N=c3ccccc3=N2)c2ccc(Cl)cc2)c(O)c1-c1ccc(Cl)cc1` was tested. Which TGI [1] did it give?
Answer: > 100 µM

Question: And the TGI [57]?
Answer: 12.6 µM

Question: What about the TGI [2] of the same molecule?
Answer: 3.01 µM

Question: And the TGI [3]?
Answer: 11.3 µM

Question: And the TGI [4]?
Answer: > 100000 nM

Question: What about the TGI [5] of the same molecule?
Answer: 6.18 µM

Question: And the TGI [7]?
Answer: > 100 µM

Question: And the TGI [58]?
Answer: 22.9 µM

Question: And the TGI [8]?
Answer: > 100 µM

Question: What about the TGI [11] of the same molecule?
Answer: > 100 µM

Question: What about the TGI [12] of the same molecule?
Answer: > 100 µM

Question: And the TGI [13]?
Answer: 13 µM

Question: And the TGI [14]?
Answer: 9.91 µM

Question: And the TGI [15]?
Answer: > 100 µM

Question: What about the TGI [17] of the same molecule?
Answer: > 100 µM

Question: And the TGI [18]?
Answer: 4510 nM

Question: And the TGI [19]?
Answer: > 100 µM

Question: And the TGI [22]?
Answer: 7.14 µM

Question: And the TGI [59]?
Answer: 12.2 µM

Question: What about the TGI [23] of the same molecule?
Answer: 6.81 µM

Question: And the TGI [24]?
Answer: 6.8 µM

Question: And the TGI [25]?
Answer: > 100 µM

Question: And the TGI [27]?
Answer: 15.9 µM

Question: What about the TGI [28] of the same molecule?
Answer: 8.08 µM

Question: What about the TGI [29] of the same molecule?
Answer: 8.12 µM

Question: And the TGI [30]?
Answer: 5.52 µM

Question: What about the TGI [31] of the same molecule?
Answer: 68.3 µM

Question: And the TGI [60]?
Answer: > 100 µM

Question: What about the TGI [32] of the same molecule?
Answer: 6.45 µM

Question: What about the TGI [33] of the same molecule?
Answer: 9.06 µM

Question: What about the TGI [61] of the same molecule?
Answer: 14.7 µM

Question: What about the TGI [34] of the same molecule?
Answer: 33.7 µM

Question: What about the TGI [37] of the same molecule?
Answer: > 100 µM

Question: What about the TGI [38] of the same molecule?
Answer: 10.7 µM

Question: And the TGI [39]?
Answer: 6.89 µM

Question: What about the TGI [40] of the same molecule?
Answer: 9.14 µM

Question: And the TGI [41]?
Answer: 7.72 µM

Question: What about the TGI [42] of the same molecule?
Answer: 4.34 µM

Question: What about the TGI [43] of the same molecule?
Answer: 7.41 µM

Question: And the TGI [62]?
Answer: > 100 µM

Question: What about the TGI [44] of the same molecule?
Answer: 20.8 µM

Question: And the TGI [45]?
Answer: > 100 µM

Question: And the TGI [47]?
Answer: 5.02 µM

Question: What about the TGI [48] of the same molecule?
Answer: 15.2 µM

Question: What about the TGI [63] of the same molecule?
Answer: 18 µM

Question: And the TGI [49]?
Answer: 16.8 µM

Question: And the TGI [50]?
Answer: > 100000 nM

Question: And the TGI [51]?
Answer: 10.1 µM

Question: And the TGI [52]?
Answer: 7.53 µM

Question: What about the TGI [53] of the same molecule?
Answer: 4.47 µM

Question: What about the TGI [64] of the same molecule?
Answer: 11.5 µM

Question: And the TGI [54]?
Answer: 19.1 µM

Question: And the TGI [55]?
Answer: > 100000 nM

Question: What about the TGI [56] of the same molecule?
Answer: 10.2 µM
